We go through 54 compounds from patent publication US5726162A (priority 1996, dated 1998).

One assay has as its system fungal inoculum. As to the kind of experiment: organism not typed. It is filed as cell-based.
Assay [1] has as its system Magnaporthe grisea (Pyricularia oryzae). As to the kind of experiment: whole plant or invertebrate. The assay is classed as in vivo, Magnaporthe grisea (Pyricularia oryzae) on M201 rice plants. Conditions: for pest or weed control at 200 ppm: Pyricularia oryzae, 144 h, read-out: % Control RB.
The test system of another assay is fungal mycelium. Briefly: organism not typed. It is filed as cell-based. Conditions: read-out: % growth inhibition.

In the case of `O=C1CCC(c2ccc(Cl)cc2)=NN1CC=CBr` [Compound 69], the inhibition at 50 ppm in the assay with fungal inoculum (read-out: % growth inhibition) was determined as 100%.

Regarding `CCC#CCN1N=C(c2ccc(OC(F)(F)F)c(F)c2)CCC1=O` [Compound 92], the inhibition at 1 ppm with fungal inoculum (read-out: % growth inhibition) amounted to 100%. In addition, the pest or weed control at 200 ppm in assay [1] was 90%.

In the case of `CC(C)C#CC=CCN1N=C(c2ccc(Cl)cc2)CCC1=O` [Compound 70], the inhibition at 5 ppm in the assay with fungal inoculum (read-out: % growth inhibition) was 100%. Besides, in assay [1], the pest or weed control at 200 ppm was 0%.

For `O=C1CCC(c2ccc(Cl)cc2)=NN1Cc1cccs1` [Compound 36, 6-(4-chlorophenyl)-2-(2'-thienylmethyl)-4,5-dihydropyridazinone], the inhibition at 50 ppm in the assay with fungal inoculum (read-out: % growth inhibition) was determined as 100%. In addition, the pest or weed control at 200 ppm in assay [1] was 90%.

For the compound `CCC#CCn1nc(-c2ccc(Cl)cc2C)ccc1=O` [Compound 115], the inhibition at 50 ppm in the assay with fungal inoculum (read-out: % growth inhibition) stood at 93.7%. The pest or weed control at 200 ppm in assay [1] was found to be 50%.

With `CC#CC(C)N1N=C(c2ccc(Cl)cc2)CCC1=O` (stereo not shown) [Compound 22], the inhibition at 100 ppm in the assay with fungal inoculum (read-out: % growth inhibition) worked out at 99.7%. Besides, the pest or weed control at 200 ppm in assay [1] turned out to be 75%.

Turning to `CC#CCN1N=C(c2ccccc2)CC(c2ccccc2)C1=O` (stereo not shown) [Compound 30], in the assay with fungal inoculum (read-out: % growth inhibition), the inhibition at 50 ppm worked out at 41.2%.

As to `CCC#CCn1nc(-c2ccc(C(C)(C)C)cc2)ccc1=O` [Compound 111], the inhibition at 25 ppm with fungal inoculum (read-out: % growth inhibition) is 100%. For the same compound, in assay [1], the pest or weed control at 200 ppm was 0%.

`CCC#CCN1N=C2c3ccc(Cl)cc3CC2CC1=O` (stereo not shown) [Compound 143, 7-chloro-2,4,4a,5-tetrahydro-2-(2-pentyn-1-yl)-indeno[1,2-c]-pyridazin-3-one]: the inhibition at 1 ppm in the assay on fungal mycelium is 100%. The pest or weed control at 200 ppm in assay [1] is 99%.

As to `CC#CCN1N=C(c2cc(Cl)cc(Cl)c2)CCC1=O` [Compound 38], the inhibition at 100 ppm in the assay with fungal inoculum (read-out: % growth inhibition) turned out to be 75.2%. The pest or weed control at 200 ppm in assay [1] came out at 75%.

As to “5-chloro-1-(2-pentyn-1-yl)-2-quinolinone [Compound 149]”, the “% growth inhibition” value in the assay with fungal inoculum worked out at 51.5%. Moreover, in assay [1] (200 ppm, protectant), the “% Control RB” value came out at 100%.

For the compound `C=C(C)C#CCN1N=C(c2ccc(Cl)cc2)CCC1=O` [Compound 45], in the assay on fungal inoculum (read-out: % growth inhibition), the inhibition at 10 ppm amounted to 100%. The pest or weed control at 200 ppm in assay [1] was 0%.

Consider `CCC#CCN1N=C(c2ccc(Br)cc2)CCC1=O` [Compound 91], for which the inhibition at 1 ppm in the assay on fungal mycelium amounted to 100%. For the same compound, the pest or weed control at 200 ppm in assay [1] worked out at 90%.

As to `CCC#CCN1N=C(c2ccc(Cl)c(C)c2)CCC1=O` [Compound 62], the inhibition at 1 ppm in the assay on fungal inoculum (read-out: % growth inhibition) is 100%. The pest or weed control at 200 ppm in assay [1] is 99%.

Consider `CC#CCN1N=C(c2ccc(Oc3ccccc3)cc2)CCC1=O` [Compound 33], for which the inhibition at 100 ppm in the assay with fungal inoculum (read-out: % growth inhibition) is 27.6%. Moreover, the pest or weed control at 200 ppm in assay [1] amounted to 0%.

With `CCC#CCN1N=C(c2cc3ccccc3s2)CCC1=O` [Compound 144], in the assay with fungal inoculum (read-out: % growth inhibition), the inhibition at 1 ppm was found to be 100%.

With `CCC#CCC1(CC#CCC)c2cc(Cl)ccc2-c2n[nH]c(=O)cc21` [Compound 151, 5,5'-[bis(pent-2-yn-1-yl)]-7-chloro-2,5-dihydroindeno-[1,2-c]-(2H)-pyridazin-3-one], the inhibition at 100 ppm with fungal inoculum (read-out: % growth inhibition) is 80.6%. For the same compound, in assay [1], the pest or weed control at 200 ppm was found to be 0%.

For `CC(=O)OC(C)C#CCN1N=C(c2ccc(Cl)cc2)CCC1=O` (stereo not shown) [Compound 49, 6-(4-chlorophenyl)-2-(4'acetoxy-2'-pentynyl)-4,5-dihydropyridazinone], in the assay with fungal inoculum (read-out: % growth inhibition), the inhibition at 50 ppm was determined as 100%. Further, the pest or weed control at 200 ppm in assay [1] was 90%.

On to `C=C=CN1N=C(c2ccc(Cl)cc2)CCC1=O` [Compound 52], for which the inhibition at 50 ppm in the assay on fungal inoculum (read-out: % growth inhibition) was determined as 93.7%. Moreover, the pest or weed control at 200 ppm in assay [1] turned out to be 0%.

Regarding `CCC#CCN1N=C(c2ccc(Cl)c(Cl)c2)CCC1=O` [Compound 28, 6-(3,4-dichlorophenyl)-2-(2'-pentynyl)-4,5-dihydropyridazinone], the inhibition at 1 ppm with fungal inoculum (read-out: % growth inhibition) is 100%. Further, the pest or weed control at 200 ppm in assay [1] is 95%.

With `O=C(O)C#CCN1N=C(c2ccc(Cl)cc2)CCC1=O` [Compound 54, 6-(4-chlorophenyl)-2-(3'-carboxy-2'-propynyl)-4,5-dihydropyridazinone], the inhibition at 200 ppm in the assay on fungal mycelium was 71.4%. The pest or weed control at 200 ppm in assay [1] came to 0%.

As for `CCC#CCN1N=C(c2ccc(C(F)(F)F)cc2)CCC1=O` [Compound 41], the inhibition at 10 ppm in the assay on fungal inoculum (read-out: % growth inhibition) came to 89.2%. Moreover, the pest or weed control at 200 ppm in assay [1] stood at 0%.

For the compound `CCC#CCn1nc(-c2ccc(OCC)cc2)ccc1=O` [Compound 117], the inhibition at 200 ppm with fungal inoculum (read-out: % growth inhibition) was determined as 34.7%. In addition, the pest or weed control at 200 ppm in assay [1] came out at 0%.

`N#CCN1N=C(c2ccc(Cl)cc2)CCC1=O` [Compound 35]: the inhibition at 50 ppm with fungal inoculum (read-out: % growth inhibition) amounted to 85%. The pest or weed control at 200 ppm in assay [1] turned out to be 75%.

With `CCC#CCn1cc(-c2ccc(Cl)cc2)cc(C#N)c1=O` [Compound 146, 5-(4-chlorophenyl)-3-cyano-1-(2-pentyn-1-yl)-2-pyridinone], the inhibition at 10 ppm with fungal inoculum (read-out: % growth inhibition) was found to be 5%. Moreover, the pest or weed control at 200 ppm in assay [1] amounted to 0%.

Turning to `COC(C)C#CCN1N=C(c2ccc(Cl)cc2)CCC1=O` (stereo not shown) [Compound 48, 6-(4-chlorophenyl)-2-(4'methoxy-2'-pentynyl)-4,5-dihydropyridazinone], the inhibition at 50 ppm in the assay with fungal inoculum (read-out: % growth inhibition) was 100%. The pest or weed control at 200 ppm in assay [1] stood at 90%.

Take `CCC#CCN1N=C(c2ccc(Cl)c([N+](=O)[O-])c2)CCC1=O` [Compound 40]: in the assay on fungal inoculum (read-out: % growth inhibition), the inhibition at 5 ppm worked out at 95.7%. Further, the pest or weed control at 200 ppm in assay [1] is 0%.

Consider `C[Si](C)(C)C#CCN1N=C(c2ccc(Cl)cc2)CCC1=O` [Compound 86], for which, in the assay on fungal mycelium, the inhibition at 100 ppm came out at 80%. The pest or weed control at 200 ppm in assay [1] came out at 0%.

As to `O=C1CCC(c2ccc(Cl)cc2)=NN1CC#CCBr` [Compound 71], the inhibition at 50 ppm with fungal inoculum (read-out: % growth inhibition) came to 92.6%. Moreover, the pest or weed control at 200 ppm in assay [1] is 0%.

Turning to `CCC#CCN1N=C(c2ccc(Cl)cc2OC)CCC1=O` [Compound 99], the inhibition at 1 ppm in the assay with fungal mycelium turned out to be 100%. In addition, the pest or weed control at 200 ppm in assay [1] was determined as 0%.

On to `O=C1CCC(c2ccc(Cl)cc2)=NN1CC#CC1CCCCC1` [Compound 94], for which, in the assay on fungal mycelium, the inhibition at 10 ppm stood at 22.2%. Also, the pest or weed control at 200 ppm in assay [1] turned out to be 0%.

As for `CCC#CCn1nc(-c2cc3ccccc3s2)ccc1=O` [Compound 147], the inhibition at 50 ppm in the assay with fungal inoculum (read-out: % growth inhibition) came out at 98.1%.

As for `CCC#CCn1nc(-c2ccc(Cl)cc2)c(F)cc1=O` [Compound 123], the inhibition at 100 ppm in the assay on fungal mycelium is 100%. For the same compound, the pest or weed control at 200 ppm in assay [1] stood at 99%.

As for `CC#CCN1N=C(C=Cc2ccc(Cl)cc2)CCC1=O` [Compound 24], the inhibition at 200 ppm in the assay with fungal mycelium came out at 6.1%. For the same compound, in assay [1], the pest or weed control at 200 ppm was 0%.

For the compound `O=CC#CCN1N=C(c2ccc(Cl)cc2)CCC1=O` [Compound 88, 6-(4-chlorophenyl)-2-(4-aldehydo-2'-butynyl)-4,5-dihydropyridazinone], in the assay with fungal mycelium, the inhibition at 100 ppm was found to be 80%. The pest or weed control at 200 ppm in assay [1] came out at 0%.

With `CC#CCN1N=C(c2ccc(Cl)c(F)c2)CCC1=O` [Compound 83], the inhibition at 0.5 ppm in the assay on fungal mycelium is 81.3%. The pest or weed control at 200 ppm in assay [1] stood at 90%.

Turning to `CC#CCN1N=C(c2ccc(Cl)c(C)c2)CCC1=O` [Compound 63], in the assay on fungal mycelium, the inhibition at 200 ppm came out at 100%. Moreover, the pest or weed control at 200 ppm in assay [1] was found to be 0%.

For the compound `CCC#CCN1N=C(c2ccc(Cl)cc2)CC=C1OC` [Compound 158, 6-(4-chlorophenyl)-3-methoxy-2-(2'-pentyn-1-yl)-2,5-dihydropyridazine], the inhibition at 10 ppm in the assay on fungal mycelium was found to be 100%. Further, the pest or weed control at 200 ppm in assay [1] was 0%.

On to `O=C1CCC(c2ccc(Cl)cc2)=NN1CC#CCC1CCCCC1` [Compound 95], for which, in the assay on fungal mycelium, the inhibition at 10 ppm is 22.2%. For the same compound, the pest or weed control at 200 ppm in assay [1] came to 0%.

Turning to `C#CC#CCN1N=C(c2ccc(Cl)cc2)CCC1=O` [Compound 93, 6-(4-chlorophenyl)-2-(2',4'-pentadiynyl)-4,5-dihydropyridazinone], the inhibition at 0.5 ppm with fungal mycelium was 100%. The pest or weed control at 200 ppm in assay [1] came to 0%.

As to `CCC#CCn1nc(-c2ccc(Cl)cc2)c(F)c(F)c1=O` [Compound 122, 6-(4-chlorophenyl)-4,5-difluoro-2-(2'-pentynyl)-pyridazinone], the inhibition at 100 ppm with fungal mycelium is 84.6%. Also, the pest or weed control at 200 ppm in assay [1] was found to be 0%.

On to `CCOC(C#CCN1N=C(c2ccc(Cl)cc2)CCC1=O)OCC` [Compound 87, 6-(4-chlorophenyl)-2-(4'-aldehydo-2'-butynyl)-4,5-dihydropyridazinone, diethyl acetal], for which the inhibition at 100 ppm in the assay on fungal mycelium was determined as 100%. In assay [1], the pest or weed control at 200 ppm worked out at 75%.

`CCC#CCN1N=C(c2ccc(Cl)cc2)C(F)(F)C(F)(F)C1=O` [Compound 106]: the inhibition at 50 ppm in the assay with fungal mycelium stood at 81%. For the same compound, the pest or weed control at 200 ppm in assay [1] amounted to 0%.

For the compound `C#CCn1nc(-c2ccc(Cl)cc2)ccc1=O` [Compound 118], in the assay with fungal mycelium, the inhibition at 200 ppm was determined as 100%. Besides, the pest or weed control at 200 ppm in assay [1] is 0%.

In the case of `O=C1CCC(c2ccc(Cl)cc2)=NN1CC#Cc1cccs1` [Compound 67], the inhibition at 5 ppm with fungal inoculum (read-out: % growth inhibition) amounted to 83.6%.

`CCC#CCN1N=C(c2ccc(OC)cc2)CCC1=O` [Compound 81]: the inhibition at 2.5 ppm in the assay on fungal mycelium came out at 95.8%. For the same compound, the pest or weed control at 200 ppm in assay [1] was determined as 95%.

As to `CCC#CCSc1ccc(-c2ccc(Cl)cc2)nn1` [Compound 152, 6-(4-chlorophenyl)-3-(2-pentyn-1-thio)-pyridazine], in the assay on fungal mycelium, the inhibition at 10 ppm amounted to 18.2%. Also, in assay [1], the pest or weed control at 200 ppm was 0%.

For the compound `CC#CCN1N=C(c2ccncc2)CCC1=O` [Compound 133], the inhibition at 200 ppm in the assay with fungal mycelium was 67.4%. Also, the pest or weed control at 200 ppm in assay [1] is 0%.

Regarding `CC#CCN1N=C(c2ccc(C(F)(F)F)cc2)CCC1=O` [Compound 42], the inhibition at 10 ppm with fungal inoculum (read-out: % growth inhibition) is 91.7%.

Take `CCC#CCN1N=C(c2ccc(F)cc2)CCC1=O` [Compound 82]: the inhibition at 2.5 ppm with fungal mycelium is 100%. The pest or weed control at 200 ppm in assay [1] worked out at 0%.

In the case of `O=C1CCC(c2ccc(Cl)cc2)=NN1CC#Cc1ccc(Cl)cc1` [Compound 68], the inhibition at 5 ppm in the assay on fungal inoculum (read-out: % growth inhibition) is 10.4%.

Take `C#CC#CCn1nc(-c2ccc(Cl)cc2)ccc1=O` [Compound 125]: the inhibition at 0.5 ppm in the assay on fungal mycelium stood at 89.5%. For the same compound, the pest or weed control at 200 ppm in assay [1] was 0%.

As for `CCC#CCN1N=C(c2ccc([N+](=O)[O-])cc2)CCC1=O` [Compound 65], the inhibition at 50 ppm in the assay with fungal mycelium came to 84%. Further, the pest or weed control at 200 ppm in assay [1] was 0%.

For the compound `CCC#CCN1N=C(c2cc(Cl)c(C)c(Cl)c2)CCC1=O` [Compound 44], the inhibition at 5 ppm with fungal inoculum (read-out: % growth inhibition) worked out at 87%.
